Measurements taken from ChEMBL document CHEMBL6182895, “Synthesis, in vitro and in vivo evaluation, and computational modeling analysis of thioxothiazolidine derivatives as highly potent and selective α-amylase inhibitors” (Eur J Med Chem, 2025).
Calls of active or inactive are those of the source. The rule behind the calls is not given here.

Experiments:
[1] = organism: Homo sapiens; test: Inhibition of alpha-amylase (unknown origin) using starch as substrate preincubated for 10 mins followed by substrate addition and measured after 10 mins relative to control; parameters: concentration or dose not given beside the values; details: time 20.0 min
[2] = organism: Homo sapiens; test: Inhibition of alpha-glucosidase (unknown origin) using p-NPG as substrate preincubated for 5 mins followed by substrate addition and measured after 30 mins relative to control; parameters: concentration or dose not given beside the values; details: time 35.0 min
[3] = Inhibition of alpha-amylase (unknown origin) using starch as substrate preincubated for 10 mins followed by substrate addition and measured after 10 mins; parameters: species or system Homo sapiens
[4] = Inhibition of alpha-amylase (unknown origin); parameters: species or system Homo sapiens
[5] = organism: Homo sapiens; test: Potency index, ratio of acarbose IC50 to test compound IC50 for inhibition of alpha-amylase (unknown origin) using starch as substrate preincubated for 10 mins followed by substrate addition and measured after 10 mins; details: time 20.0 min
[6] = system: Rattus norvegicus; test: Protection against diabetes-induced organ dysfunction in streptozotocin-induced diabetic Wistar rat model assessed as reduction in kidney damage by measuring kidney with structural improvement and reduced retraction, preserved glomeruli and less hemorrhages at 10 mg/kg, po and measured on day 14 by Hematoxylin-Eosin staining based analysis; type: functional, organism-based; details: time 14.0 day
[7] = system: Rattus norvegicus; test: Antidiabetic activity against streptozotocin-induced diabetic Wistar rat model assessed as restoration of metabolic homeostasis by measuring ALP level in serum at 10 mg/kg, po measured on day 1 to 14 (reference value: 195.13 +/-1.08 IU/L); type: functional; details: time 1-14 day
[8] = organism: Homo sapiens; test: Mixed type of inhibition of alpha-amylase (unknown origin) assessed as change in Km and Vmax of substrate using starch as substrate and measured after 10 mins by Lineweaver-burk plot analysis
[9] = system: Rattus norvegicus; test: Antidiabetic activity against streptozotocin-induced diabetic Wistar rat model assessed as blood glucose level at 10 mg/kg, po and measured on day 7 (reference value: 378.8 +/-6.48 mg/dl); type: functional; details: time 7 day
[10] = system: Rattus norvegicus; test: Antidiabetic activity against streptozotocin-induced diabetic Wistar rat model assessed as blood glucose level at 10 mg/kg, po and measured on day 14 (reference value: 388.3 +/-6.34 mg/dl); type: functional; details: time 14 day
[11] = system: Rattus norvegicus; test: Antidiabetic activity against streptozotocin-induced diabetic Wistar rat model assessed as restoration of metabolic homeostasis by measuring serum creatinine level at 10 mg/kg, po measured on day 1 to 14 (reference value: 116.81 +/-9.26 uM); type: functional; details: time 1-14 day
[12] = system: Rattus norvegicus; test: (§1) Protection against diabetes-induced organ dysfunction in streptozotocin-induced diabetic Wistar rat model assessed as reduction in pancreas damage by measuring well preserved islet structure at 10 mg/kg, po and measured on day 14 by Hematoxylin-Eosin staining based analysis; type: functional, organism-based; details: time 14.0 day
[13] = system: Rattus norvegicus; test: Antidiabetic activity against streptozotocin-induced diabetic Wistar rat model assessed as restoration of metabolic homeostasis by measuring AST level in serum at 10 mg/kg, po measured on day 1 to 14 (reference value: 133.49 +/-2.52 IU/L); type: functional; details: time 1-14 day
[14] = system: Rattus norvegicus; test: Antidiabetic activity against streptozotocin-induced diabetic Wistar rat model assessed as blood glucose level at 10 mg/kg, po and measured on day 1 (reference value: 324.7 +/-6.24 mg/dl); type: functional; details: time 1 day
[15] = system: Rattus norvegicus; test: Antidiabetic activity against streptozotocin-induced diabetic Wistar rat model assessed as restoration of metabolic homeostasis by measuring serum urea level at 10 mg/kg, po measured on day 1 to 14 (reference value: 124.68 +/-2.16 mg/dl); type: functional; details: time 1-14 day
[16] = system: Rattus norvegicus; test: Antidiabetic activity against streptozotocin-induced diabetic Wistar rat model assessed as restoration of metabolic homeostasis by measuring ALT level in serum at 10 mg/kg, po measured on day 1 to 14 (reference value: 35.2 +/-1.58 IU/L); type: functional; details: time 1-14 day
[17] = system: Rattus norvegicus; test: Antidiabetic activity against streptozotocin-induced diabetic Wistar rat model assessed as restoration of metabolic homeostasis by measuring decrease in […] level in serum at 10 mg/kg, po measured on day 1 to 14; type: functional, organism-based; details: time 1-14 day
[18] = system: Rattus norvegicus; test: (§2) Protection against diabetes-induced organ dysfunction in streptozotocin-induced diabetic Wistar rat model assessed as reduction in liver damage by measuring improved hepatic sinusoid congestion and healthier hepatocytes with reduced lipid droplets at 10 mg/kg, po and measured on day 14 by Hematoxylin-Eosin staining based analysis; type: functional, organism-based; details: time 14.0 day
[19] = system: Rattus norvegicus; test: Antidiabetic activity against streptozotocin-induced diabetic Wistar rat model assessed as restoration of metabolic homeostasis by measuring serum urea level at 50 mg/kg, po measured on day 1 to 14 (reference value: 124.68 +/-2.16 mg/dl); type: functional; details: time 1-14 day
[20] = system: Rattus norvegicus; test: Protection against diabetes-induced organ dysfunction in streptozotocin-induced diabetic Wistar rat model assessed as reduction in kidney damage by measuring kidney with less severe retraction and swelling with measurable hemorrhages in renal tubules and glomeruli at 50 mg/kg, po and measured on day 14 by Hematoxylin-Eosin staining based analysis; type: functional, organism-based; details: time 14.0 day
[21] = Inhibition of porcine pancreatic alpha-amylase using starch as substrate preincubated for 10 mins followed by substrate addition and measured after 30 mins; parameters: species or system Sus scrofa
[22] = system: Rattus norvegicus; test: Antidiabetic activity against streptozotocin-induced diabetic Wistar rat model assessed as restoration of metabolic homeostasis by measuring ALP level in serum at 50 mg/kg, po measured on day 1 to 14 (reference value: 195.13 +/-1.08 IU/L); type: functional; details: time 1-14 day
[23] = system: Rattus norvegicus; test: Antidiabetic activity against streptozotocin-induced diabetic Wistar rat model assessed as restoration of metabolic homeostasis by measuring AST level in serum at 50 mg/kg, po measured on day 1 to 14 (reference value: 133.49 +/-2.52 IU/L); type: functional; details: time 1-14 day
[24] = Inhibition of alpha-amylase (unknown origin) using starch as substrate measured after 30 mins; parameters: species or system Homo sapiens
[25] = system: Rattus norvegicus; test: Antidiabetic activity against streptozotocin-induced diabetic Wistar rat model assessed as restoration of metabolic homeostasis by measuring serum creatinine level at 50 mg/kg, po measured on day 1 to 14 (reference value: 116.81 +/-9.26 uM); type: functional; details: time 1-14 day
[26] = system: Rattus norvegicus; test: Antidiabetic activity against streptozotocin-induced diabetic Wistar rat model assessed as blood glucose level at 50 mg/kg, po and measured on day 1 (reference value: 324.7 +/-6.24 mg/dl); type: functional; details: time 1 day
[27] = system: Rattus norvegicus; test: Antidiabetic activity against streptozotocin-induced diabetic Wistar rat model assessed as restoration of metabolic homeostasis by measuring ALT level in serum at 50 mg/kg, po measured on day 1 to 14 (reference value: 35.2 +/-1.58 IU/L); type: functional; details: time 1-14 day
[28] = system: Rattus norvegicus; test: Antidiabetic activity against streptozotocin-induced diabetic Wistar rat model assessed as blood glucose level at 50 mg/kg, po and measured on day 7 (reference value: 378.8 +/-6.48 mg/dl); type: functional; details: time 7 day
[29] = system: Rattus norvegicus; test: Antidiabetic activity against streptozotocin-induced diabetic Wistar rat model assessed as restoration of metabolic homeostasis by measuring decrease in […] level in serum at 50 mg/kg, po measured on day 1 to 14; type: functional, organism-based; details: time 1-14 day
[30] = system: Rattus norvegicus; test: as §2, with “fewer congestive blood vessels, reduced hepatocyte ballooning” for “improved hepatic sinusoid congestion and healthier hepatocytes”, “fewer” for “reduced”, “50” for “10”; type: functional, organism-based; details: time 14.0 day
[31] = system: Rattus norvegicus; test: Antidiabetic activity against streptozotocin-induced diabetic Wistar rat model assessed as blood glucose level at 50 mg/kg, po and measured on day 14 (reference value: 388.3 +/-6.34 mg/dl); type: functional; details: time 14 day
[32] = Inhibition of porcine pancreatic alpha-amylase using starch as substrate preincubated for 10 mins followed by substrate addition and measured after 5 mins; parameters: species or system Sus scrofa
[33] = system: Rattus norvegicus; test: as §1, with “visible improvement in” for “well preserved”, “structure with noticeable signs of atrophy remained” for “structure”, “50” for “10”; type: functional, organism-based; details: time 14.0 day

inhibition [1] | inhibition [2] | IC50 [3] | SMILES | further results
60.4% | 6.49% | 190 µM | O=C(CN1C(=O)/C(=C/c2csc3ccccc23)SC1=S)Nc1c(F)cc(F)cc1Br | –
34.8% | 7.83% | – | O=C(CN1C(=O)/C(=C/c2nccs2)SC1=S)Nc1ccc(C(F)(F)F)cc1 | –
80.4% | 6.43% | 0.71 µM | Cn1ccnc1/C=C1\SC(=S)N(CC(=O)Nc2ccc(C(F)(F)F)cc2)C1=O | Activity [6]: Active; Activity [7]: 138.41 IU/L; inhibition [8]: Active; Activity [9]: 149.7 mg/dL; Activity [10]: 106.2 mg/dL; Activity [11]: 82.14 µM; Activity [12]: Active; Activity [13]: 41.13 IU/L; Activity [14]: 328.3 mg/dL; Activity [15]: 57.31 mg/dL; Activity [16]: 12.04 IU/L; Ratio IC50 [5]: 1340; Activity [17]: Active; Activity [18]: Active
73.5% | 4.59% | 14 µM | O=C(CN1C(=O)/C(=C/c2csc3ccccc23)SC1=S)Nc1ccc(C(F)(F)F)cc1 | Ratio IC50 [5]: 68
61.7% | 3.78% | 4.07 µM | O=C(CN1C(=O)/C(=C/c2nc3ccccc3s2)SC1=S)Nc1ccc(C(F)(F)F)cc1 | Ratio IC50 [5]: 234

Further lines, the molecule ahead of its results:

SMILES | inhibition [1] | inhibition [2] | IC50 [3] | further results
Cn1ccnc1/C=C1\SC(=S)N(CC(=O)Nc2cccnn2)C1=O | 27.4% | 9.47% | – | –
O=C(CN1C(=O)/C(=C/c2nc3ccccc3s2)SC1=S)Nc1c(F)cc(Br)cc1Cl | 69.8% | 8.37% | 167 µM | –
O=C1OCc2cc(-c3ccc(C(F)(F)F)cc3)ccc21 | – | – | – | IC50 [4]: 85.4 µM
O=C(CN1C(=O)/C(=C/c2nccs2)SC1=S)Nc1c(F)cc(Br)cc1Cl | 47.1% | 5.14% | 45.1 µM | Ratio IC50 [5]: 21
Fc1ccc(NC(=S)Nc2nnc(-c3ccc4cn[nH]c4c3)s2)cc1 | – | – | – | IC50 [4]: 9.9 µM
O=C(CN1C(=O)/C(=C/c2nc3ccccc3s2)SC1=S)Nc1cccnn1 | 37.4% | 7.42% | – | –
Cn1ccnc1/C=C1\SC(=S)N(CC(=O)Nc2c(F)cc(F)cc2Br)C1=O | 59.2% | 6.24% | 129 µM | –
Cn1ccnc1/C=C1\SC(=S)N(CC(=O)NC23CC4CC(CC(C4)C2)C3)C1=O | 15.2% | 8.22% | – | –
CC(C)CNC(=O)CN1C(=O)/C(=C/c2csc3ccccc23)SC1=S | 29.6% | 8.62% | – | –
O=C(CN1C(=O)/C(=C/c2nccs2)SC1=S)Nc1cccnn1 | 10.1% | 10.1% | – | –
O=C(CN1C(=O)/C(=C/c2nc3ccccc3s2)SC1=S)NC12CC3CC(CC(C3)C1)C2 | 29.6% | 6.63% | – | –
O=C(CN1C(=O)/C(=C/c2csc3ccccc23)SC1=S)NC12CC3CC(CC(C3)C1)C2 | 32.5% | 6.53% | – | –
C[C@H]1O[C@H](O[C@H]2[C@H](O)[C@@H](O)[C@@H](O[C@H]3[C@H](O)[C@@H](O)C(O)O[C@@H]3CO)O[C@@H]2CO)[C@H](O)[C@@H](O)[C@@H]1N[C@H]1C=C(CO)[C@@H](O)[C@H](O)[C@H]1O (stereo partly drawn) [ACARBOSE] | 81.2% | 76.4% | 951 µM | Activity [19]: 55.28 mg/dL; Activity [20]: Active; inhibition [8]: Active; IC50 [21]: 104 µM; Activity [22]: 145.34 IU/L; Activity [23]: 48.87 IU/L; IC50 [4]: 1.06 µM; IC50 [24]: 0.0125 µM; Activity [25]: 80.21 µM; Activity [26]: 315.8 mg/dL; Activity [27]: 12.14 IU/L; Activity [28]: 170.6 mg/dL; Activity [29]: Active; Activity [30]: Active; Activity [31]: 119.7 mg/dL; IC50 [32]: 1.56 µM; Activity [33]: Active
O=C(CN1C(=O)/C(=C/c2nccs2)SC1=S)NC12CC3CC(CC(C3)C1)C2 | 42.1% | 5.67% | – | –
